Experimental data reported in PubChem BioAssay AID1845194 (Molecular Pharmacology Branch, DTP, NCI, 2023).

System: 287954-098-R-J1 tumor spheroid viability
Assay: Anticancer human tumor 287954-098-R-J1 patient-derived Ewing sarcoma cell line growth inhibition
Conditions: spheroids with HUVEC and MSC; for IC50: curve of first compound; for viability, T/C: stronger effect = lower value; active = viability on the fitted dose curve at most 10% of control; inactive = the rest
Outline: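 Complex spheroids of malignant cells with endothelial cells and mesenchymal stem cells; agents alone or combined, from near clinical Cmax (or 10 microM if unknown) down in half-log steps, 0.25% DMSO final.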

[1] = second compound 0.003 µM, first compound 0.00949 µM
[2] = second compound 0.003 µM, first compound 0.03 µM
[3] = second compound 0.003 µM, first compound 0.0949 µM
[4] = second compound 0.003 µM, first compound 0.3 µM
[5] = second compound 0.003 µM, first compound 0.949 µM
[6] = second compound 0.003 µM, first compound 3 µM
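Note: spheroids exposed to compound for 7 days before viability readout.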
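Throughout, for viability, T/C: luminescent signal taken as surrogate of viable cell content; 100% = DMSO vehicle control viability and lower means growth inhibition.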

Cn1ncnc1[C@H]1c2n[nH]c(=O)c3cc(F)cc(c23)N[C@@H]1c1ccc(F)cc1 + COc1cc2c(cc1O)CCNC21CSC2c3c(OC(C)=O)c(C)c4c(c3C(COC1=O)N1C(O)C3Cc5cc(C)c(OC)c(O)c5C(C21)N3C)OCO4
575 nM: IC50 (second compound 30 pM)
477 nM: IC50 (second compound 94.9 pM)
inactive: viability, T/C (second compound 30 pM, first compound 0.00949 µM) 99% | viability, T/C (second compound 30 pM, first compound 0.03 µM) 111% | viability, T/C (second compound 30 pM, first compound 0.0949 µM) 102% | viability, T/C (second compound 30 pM, first compound 0.3 µM) 97.6% | viability, T/C (second compound 30 pM, first compound 0.949 µM) 13.3% | viability, T/C (second compound 94.9 pM, first compound 0.00949 µM) 107% | viability, T/C (second compound 94.9 pM, first compound 0.03 µM) 104% | viability, T/C (second compound 94.9 pM, first compound 0.0949 µM) 106% | viability, T/C (second compound 94.9 pM, first compound 0.3 µM) 82.7% | viability, T/C (second compound 0.0003 µM, first compound 0.00949 µM) 81.8% | viability, T/C (second compound 0.0003 µM, first compound 0.03 µM) 63%
39 nM: IC50 (second compound 0.0003 µM)
< 9.49 nM: IC50 (second compound 0.000949 µM) | IC50 (second compound 0.003 µM)
active: viability, T/C (second compound 30 pM, first compound 3 µM) 1.27% | viability, T/C (second compound 94.9 pM, first compound 0.949 µM) 1.42% | viability, T/C (second compound 94.9 pM, first compound 3 µM) 1.02% | viability, T/C (second compound 0.0003 µM, first compound 0.0949 µM) 6% | viability, T/C (second compound 0.0003 µM, first compound 0.3 µM) 1.31% | viability, T/C (second compound 0.0003 µM, first compound 0.949 µM) 0.92% | viability, T/C (second compound 0.0003 µM, first compound 3 µM) 0.91% | viability, T/C (second compound 0.000949 µM, first compound 0.00949 µM) 0.31% | viability, T/C (second compound 0.000949 µM, first compound 0.03 µM) 0.21% | viability, T/C (second compound 0.000949 µM, first compound 0.0949 µM) 0.23% | viability, T/C (second compound 0.000949 µM, first compound 0.3 µM) 0.13% | viability, T/C (second compound 0.000949 µM, first compound 0.949 µM) 0.04% | viability, T/C (second compound 0.000949 µM, first compound 3 µM) 0.12% | viability, T/C [1] 0.16% | viability, T/C [2] 0.17% | viability, T/C [3] 0.13% | viability, T/C [4] 0.12% | viability, T/C [5] 0.12% | viability, T/C [6] 0.2%

Cn1ncnc1[C@H]1c2n[nH]c(=O)c3cc(F)cc(c23)N[C@@H]1c1ccc(F)cc1 + CC[C@@]1(O)C(=O)OCc2c1cc1n(c2=O)Cc2cc3c(CN(C)C)c(O)ccc3nc2-1
active: viability, T/C [5] 2.29% | viability, T/C [6] 2.4% | viability, T/C (second compound 0.00949 µM, first compound 0.3 µM) 2.19% | viability, T/C (second compound 0.00949 µM, first compound 0.949 µM) 2.05% | viability, T/C (second compound 0.00949 µM, first compound 3 µM) 2.02% | viability, T/C (second compound 0.03 µM, first compound 0.00949 µM) 2.23% | viability, T/C (second compound 0.03 µM, first compound 0.03 µM) 1.81% | viability, T/C (second compound 0.03 µM, first compound 0.0949 µM) 2.46% | viability, T/C (second compound 0.03 µM, first compound 0.3 µM) 2.34% | viability, T/C (second compound 0.03 µM, first compound 0.949 µM) 1.82% | viability, T/C (second compound 0.03 µM, first compound 3 µM) 2.07% | viability, T/C (second compound 0.0949 µM, first compound 0.00949 µM) 1.93% | viability, T/C (second compound 0.0949 µM, first compound 0.03 µM) 1.99% | viability, T/C (second compound 0.0949 µM, first compound 0.0949 µM) 2.15% | viability, T/C (second compound 0.0949 µM, first compound 0.3 µM) 1.75% | viability, T/C (second compound 0.0949 µM, first compound 0.949 µM) 2.09% | viability, T/C (second compound 0.0949 µM, first compound 3 µM) 1.72% | viability, T/C (second compound 0.3 µM, first compound 0.00949 µM) 1.85% | viability, T/C (second compound 0.3 µM, first compound 0.03 µM) 1.99% | viability, T/C (second compound 0.3 µM, first compound 0.0949 µM) 1.97% | viability, T/C (second compound 0.3 µM, first compound 0.3 µM) 1.59% | viability, T/C (second compound 0.3 µM, first compound 0.949 µM) 1.85% | viability, T/C (second compound 0.3 µM, first compound 3 µM) 1.48%
inactive: viability, T/C [1] 99.9% | viability, T/C [2] 97.6% | viability, T/C [3] 105% | viability, T/C [4] 76.4% | viability, T/C (second compound 0.00949 µM, first compound 0.00949 µM) 90.6% | viability, T/C (second compound 0.00949 µM, first compound 0.03 µM) 74.2% | viability, T/C (second compound 0.00949 µM, first compound 0.0949 µM) 45.6%
74.8 nM: IC50 (second compound 0.00949 µM)
453 nM: IC50 (second compound 0.003 µM)
< 9.49 nM: IC50 (second compound 0.03 µM) | IC50 (second compound 0.0949 µM) | IC50 (second compound 0.3 µM)
